Molecules are shown by their SMILES.

This is an account of results in patent publication US3951995A, “Method for industrial production of N-substituted dipropylacetamides” (Laboratorios Made, S.A., priority 1973, dated 1976).

Series [1] is described as follows: Acute toxicity, lethal dose 50 (LD50), intraperitoneal. Set-up: species or system albino rats I.C.R. Swiss. The note with it: rat, in vivo, ip. The source says: The lethal dose 50 (LD50) has been determined on albino rats I.C.R. Swiss, of both sexes, weighing 24 ± 2 g.
The test system of series [2] is hypnotic effect of the pentobarbital. As to the kind of experiment: Potentiation of barbiturates (sodium pentobarbital hypnotic effect). The note with it: for Asleep after 180 minutes (number of animals) / Awake after 180 minutes (number of animals): 30 min before sodium pentobarbital 60 mg/kg i.p., of 20; for potentiation of the hypnotic effect of the pentobarbital (in words): sodium pentobarbital 60 mg/kg i.p., I 180, II 35, III 18, Diazepam 3,6 mg/kg. It counts as in vivo, albino rats I.C.R. Swiss. As to the method:
Albino rats I.C.R. Swiss weighing 25 ± 2 g have been used.
Lot (1): Sodium pentobarbital 60 mg/kg + I (180 mg/kg).
Lot (2): Sodium pentobarbital 60 mg/kg + II (35 mg/kg).
Lot (3): Sodium pentobarbital 60 mg/kg + III (18 mg/kg).
Lot (5): Sodium pentobarbital 60 mg/kg + distilled H2 O (control lot).
The number of animals awake after 180 minutes after the administration of the barbiturate are noted. The following results have been obtained according to the statistic test of Chi^2 : […]

Series [3] concerns convulsions and lethal effect of cardiazol. Briefly: Anti-convulsant activity against cardiazol. In kind it is in vivo, albino rats I.C.R. Swiss. Conditions: for number of animals with convulsions / number of dead animals: after 30 minutes cardiazol 1 mg/rat, 10 rats per lot. As to the method:
There have been employed 4 lots of 10 rats per lot, which received:
Lot (1): I 180 mg/kg and after 30 minutes cardiazol 1 mg/rat.
Lot (2): II 35 mg/kg and after 30 minutes cardiazol 1 mg/rat.
Lot (3): III 18 mg/kg and after 30 minutes cardiazol 1 mg/rat.

[4] abbreviates: II 35 mg/kg, cardiazol 1 mg/rat.

In general, LD50 refers to the dose expected to kill half of the subjects tested. In series [1], `CCCC(CCC)C(=O)NCc1cccnc1` [Compound II, N-(3-picolyl)-dipropylacetamide] registered an LD50 of 95 mg/kg. Moreover, in series [2] (II 35 mg/kg, control 1, p<0.001 (Chi^2)), the “Asleep after 180 minutes (number of animals)” value (shortened to “Asleep after 180 minutes”) is on record as 14. Further, the “Awake after 180 minutes (number of animals)” value (“Awake after 180 minutes” for short) in series [2] (II 35 mg/kg, control 19, p<0.001 (Chi^2)) was 6. In series [2], the “potentiation of the hypnotic effect of the pentobarbital (in words)” value (shortened to “potentiation”) was “potentiates clearly the hypnotic effect of the pentobarbital”. In series [3] (II 35 mg/kg, control 10), the “number of animals with convulsions” value is recorded as 0 and the “number of dead animals” value was 0. Besides, in series [3] (setting [4]), the “protection of the convulsions” value came to 100% and the “protection of the lethal effect of the cardiazol” value came out at 100%.

In series [1], `CCCC(CCC)C(=O)NCc1ccncc1` [Compound III, N-(4-picolyl) - dipropylacetamide] gave an LD50 of 264 mg/kg. In addition, in series [2] (III 18 mg/kg, control 4, p<0.001 (Chi^2)), the “Asleep after 180 minutes” value is 19. Further, in series [2] (III 18 mg/kg, control 16, p<0.001 (Chi^2)), the “Awake after 180 minutes” value is recorded as 1. Also, in series [2], the “potentiation” value is on record as “potentiates clearly the hypnotic effect of the pentobarbital”. Besides, the “number of dead animals” value in series [3] (III 18 mg/kg, control 0) stood at 0. Further, the “number of animals with convulsions” value in series [3] (III 18 mg/kg, control 5) is given as 1. Further, the “protection of the convulsion effect of cardiazol” value in series [3] (III 18 mg/kg, cardiazol 1 mg/rat) was 40%.

In turn, `CCCC(CCC)C(=O)NCc1ccccn1` [Compound I, N-(2-picolyl)-dipropylacetamide] returned an LD50 in series [1] above 1600 mg/kg. Besides, in series [2] (I 180 mg/kg, control 1, p<0.001 (Chi^2)), the “Asleep after 180 minutes” value is 17. Moreover, in series [2] (I 180 mg/kg, control 19, p<0.001 (Chi^2)), the “Awake after 180 minutes” value is recorded as 3. Also, in series [2], the “potentiation” value is given as “potentiates clearly the hypnotic effect of the pentobarbital”. For the same molecule, in series [3] (I 180 mg/kg, control 10), the “number of animals with convulsions” value is 9 and the “number of dead animals” value was found to be 7. Further, in series [3] (I 180 mg/kg, cardiazol 1 mg/rat), the “protection of the lethal effect of the cardiazol” value was found to be 30%.

For `CN1C(=O)CN=C(c2ccccc2)c2cc(Cl)ccc21` [Diazepam, reference compound], the “Asleep after 180 minutes” value in series [2] (Diazepam 3,6 mg/kg, control 4, p<0.02 (Chi^2)) is reported as 15. In addition, in series [2] (Diazepam 3,6 mg/kg, control 16, p<0.02 (Chi^2)), the “Awake after 180 minutes” value is 5. For the same molecule, in series [2], the “potentiation” value was “potentiates clearly the hypnotic effect of pentobarbital, but not as much as the three compounds according to this invention”. The “anti-convulsant / anti-epileptic activity (in words)” value in series [3] (general statement) is on record as “Results have been positive with cardiazol”.
